Among the data in patent US8658697B2 (priority 2004, dated 2014) are EC50 values, retold here.

This test concerns Tacaribe virus (TRVL 11573). In words: microbe, parasite or virus in culture. The format is cell-based. As to conditions: Mammarenavirus tacaribeense, Vero, read-out: Tacaribe EC50.
With `Cc1ccc(S(=O)(=O)N(C)NC(=O)NC(C)(C(F)(F)F)C(F)(F)F)cc1` [Example 43, N-2-(1,1,1,3,3,3-Hexafluoro-2-methylpropyl)-2-[(4-methylphenyl)sulfonyl]-2-methylhydrazine-1-carboxamide], the EC50 (as a rule, the midpoint of the concentration-response curve) was in the range of 1000 to 5000 nM.

On to `CC(NC(=O)NNS(=O)(=O)c1c(Cl)cccc1Cl)(C(F)(F)F)C(F)(F)F` [Example 44, N-2-(1,1,1,3,3,3-Hexafluoro-2-methylpropyl)-2-[(2,6-dichlorophenyl)sulfonyl]hydrazine-1-carboxamide], for which the EC50 lay in the range of 1000 to 5000 nM.

For the compound `CC(NC(=O)NNS(=O)(=O)c1c(C(F)(F)F)cccc1C(F)(F)F)(C(F)(F)F)C(F)(F)F` [Example 45, N-2-(1,1,1,3,3,3-Hexafluoro-2-methylpropyl)-2-[(2,6-ditrifluoromethylphenyl)sulfonyl] hydrazine-1-carboxamide], the EC50 was in the range of 1000 to 5000 nM.

Consider `Cc1ccc(S(=O)(=O)NNC(=O)N(C)C(C)(C(F)(F)F)C(F)(F)F)cc1` [Example 46, N-2-(1,1,1,3,3,3-Hexafluoro-2-methylpropyl)-2-[(4-methylphenyl)sulfonyl]hydrazine-1-methylcarboxamide], for which the EC50 is greater than 5000 nM.

Regarding `Cc1noc(C)c1S(=O)(=O)NNC(=O)NC(C)(C(F)(F)F)C(F)(F)F` [Example 47, N-2-(1,1,1,3,3,3-Hexafluoro-2-methylpropyl)-2-[(3,5-dimethylisoxazol-5-yl)sulfonyl]hydrazine-1-carboxamide], the EC50 was greater than 5000 nM.

As for `CC(NC(=O)NNS(=O)(=O)c1ccc([N+](=O)[O-])cc1)(C(F)(F)F)C(F)(F)F` [Example 48, N-2-(1,1,1,3,3,3-Hexafluoro-2-methylpropyl)-2-[(4-nitrophenyl)sulfonyl]hydrazine-1-carboxamide], the EC50 was greater than 5000 nM.

`Cn1cnc(S(=O)(=O)NNC(=O)NC(C)(C(F)(F)F)C(F)(F)F)c1` [Example 49, N-2-(1,1,1,3,3,3-Hexafluoro-2-methylpropyl)-2-[(1-methylimidazol-4-yl)sulfonyl]hydrazine-1-carboxamide]: the EC50 was greater than 5000 nM.

On to `CC(NC(=O)NNS(C)(=O)=O)(C(F)(F)F)C(F)(F)F` [Example 50, N-2-(1,1,1,3,3,3-Hexafluoro-2-methylpropyl)-2-[methylsulfonyl]hydrazine-1-carboxamide], for which the EC50 was greater than 5000 nM.

With `CC(NC(=O)N1CCN(c2ccccc2)CC1)(C(F)(F)F)C(F)(F)F` [Example 51, 4-Phenylpiperazine-1-(2,2,2-trifluoro-1-methyl-1-trifluoromethylethyl)-carboxamide], the EC50 was less than 500 nM.

Turning to `CC(NC(=O)N1CCOCC1)(C(F)(F)F)C(F)(F)F` [Example 52, 4-Morpholino-1-(2,2,2-trifluoro-1-methyl-1-trifluoromethylethyl)-carboxamide], the EC50 is less than 500 nM.

`CC(=O)c1ccccc1NC(=O)NC(C)(C(F)(F)F)C(F)(F)F` [Example 53, 1-(2-Acetylphenyl)-3-(2,2,2-trifluoro-1-methyl-1-trifluoromethylethyl)-urea]: the EC50 was in the range of 500 to 1000 nM.

Turning to `CC(NC(=O)N1CCCCC1)(C(F)(F)F)C(F)(F)F` [Example 54, 1-Piperidino-1-(2,2,2-trifluoro-1-methyl-1-trifluoromethylethyl)-carboxamide], the EC50 lay within 500 to 1000 nM.

`COc1cc(NC(=O)NC(C)(C(F)(F)F)C(F)(F)F)cc(OC)c1OC` [Example 55, 1-(2,2,2-trifluoro-1-methyl-1-trifluoromethylethyl)-3-(3,4,5-trimethoxyphenyl)-urea]: the EC50 was 500 to 1000 nM.

On to `CC(NC(=O)Nc1ccc(C(F)(F)F)cc1)(C(F)(F)F)C(F)(F)F` [Example 56, 1-(4-Trifluoromethylphenyl)-3-(2,2,2-trifluoro-1-methyl-1-trifluoromethylethyl)-urea], for which the EC50 fell in the range of 500 to 1000 nM.

Take `CN1CCN(C(=O)NC(C)(C(F)(F)F)C(F)(F)F)CC1` [Example 57, 4-Methylpiperazine-1-(2,2,2 trifluoro-1-methyl-1-trifluoromethylethyl)-carboxamide]: the EC50 fell in the range of 1000 to 5000 nM.

In the case of `CC(NC(=O)Nc1cccc2ccccc12)(C(F)(F)F)C(F)(F)F` [Example 58, 1-Naphthalen-1-yl-3-(2,2,2-trifluoro-1-methyl-1-trifluoromethylethyl)-urea], the EC50 fell in the range of 1000 to 5000 nM.

For the compound `CC(NC(=O)N1CCC(c2ccccc2)CC1)(C(F)(F)F)C(F)(F)F` [Example 60, 4-Phenylpiperidin-1-yl-1-(2,2,2-trifluoro-1-methyl-1-trifluoromethylethyl)-carboxamide], the EC50 was 1000 to 5000 nM.

In the case of `CC(NC(=O)Nc1ccccc1-c1ccccc1)(C(F)(F)F)C(F)(F)F` [Example 61], the EC50 was 1000 to 5000 nM.

With `CC(NC(=O)Nc1c(F)cccc1F)(C(F)(F)F)C(F)(F)F` [Example 62, 1-(2,6-Difluorophenyl)-3-(2,2,2-trifluoro-1-methyl-1-trifluoromethylethyl)-urea], the EC50 was in the range of 1000 to 5000 nM.

As for `CC(NC(=O)Nc1ccccc1C(N)=O)(C(F)(F)F)C(F)(F)F` [Example 63, 2-[3-(1,1-Bis-trifluoromethylethyl)-ureido]benzamide], the EC50 is 1000 to 5000 nM.

On to `CC(NC(=O)Nc1c(F)cccc1Cl)(C(F)(F)F)C(F)(F)F` [Example 64, 1-(2-Chloro-6-fluorophenyl)-3-(2,2,2-trifluoro-1-methyl-1-trifluoromethylethyl)-urea], for which the EC50 lay in the range of 1000 to 5000 nM.

Take `CC(NC(=O)Nc1cccc(C(F)(F)F)c1)(C(F)(F)F)C(F)(F)F` [Example 65, 1-(3-Trifluoromethylphenyl)-3-(2,2,2-trifluoro-1-methyl-1-trifluoromethylethyl)-urea]: the EC50 is 1000 to 5000 nM.

In the case of `CC(NC(=O)Nc1ccccc1S(N)(=O)=O)(C(F)(F)F)C(F)(F)F` [Example 66, 2-[3-(1,1-Bis-trifluoromethylethyl)-ureido]benzenesulfonamide], the EC50 lay in the range of 1000 to 5000 nM.

For `CC(NC(=O)Nc1cccc2c1OC(F)(F)C(F)(F)O2)(C(F)(F)F)C(F)(F)F` [Example 67, 1-(2,2,3,3-Tetrafluoro-2,3-dihydrobenzo[1,4]dioxin-5-yl)-3-(2,2,2-trifluoro-1-methyl-1-trifluoromethylethyl)-urea], the EC50 was 1000 to 5000 nM.

`CC(NC(=O)Nc1cccc(OC(F)(F)F)c1)(C(F)(F)F)C(F)(F)F` [Example 68, 1-(3-Trifluoromethoxyphenyl)-3-(2,2,2-trifluoro-1-methyl-1-trifluoromethylethyl)-urea]: the EC50 is 1000 to 5000 nM.

Turning to `CC(NC(=O)Nc1ccc(OC(F)(F)F)cc1)(C(F)(F)F)C(F)(F)F` [Example 69, 1-(4-Trifluoromethoxyphenyl)-3-(2,2,2-trifluoro-1-methyl-1-trifluoromethylethyl)-urea], the EC50 was 1000 to 5000 nM.

Take `CC1CCN(C(=O)NC(C)(C(F)(F)F)C(F)(F)F)CC1` [Example 70, 4-Methyl-1-piperidine-1-(2,2,2-trifluoro-1-methyl-1-trifluoromethylethyl)-carboxamide]: the EC50 was 1000 to 5000 nM.

Take `CC(NC(=O)Nc1ccc2ccccc2c1)(C(F)(F)F)C(F)(F)F` [Example 71, 1-Naphthalen-2-yl-3-(2,2,2-trifluoro-1-methyl-1-trifluoromethylethyl)-urea]: the EC50 was in the range of 1000 to 5000 nM.

Consider `CC(NC(=O)Nc1ccccc1F)(C(F)(F)F)C(F)(F)F` [Example 72, 1-(2-fluorophenyl)-3-(2,2,2-trifluoro-1-methyl-1-trifluoromethylethyl)-urea], for which the EC50 was 1000 to 5000 nM.

In the case of `COc1cccc(OC)c1NC(=O)NC(C)(C(F)(F)F)C(F)(F)F` [Example 73, l-(2,6-Dimethoxyphenyl)-3-(2,2,2-trifluoro-1-methyl-1-trifluoromethylethyl)-urea], the EC50 is 1000 to 5000 nM.

Take `CC(NC(=O)Nc1ccc(C(=O)O)cc1OC(F)(F)F)(C(F)(F)F)C(F)(F)F` [Example 74, 3-Trifluormethoxy-4-[3-(1,1-bis-trifluoromethylethyl)-ureido]benzoic acid]: the EC50 lay in the range of 1000 to 5000 nM.

With `CC(NC(=O)Nc1ccccc1)(C(F)(F)F)C(F)(F)F` [Example 75, 1-Phenyl-3-(2,2,2-trifluoro-1-methyl-1-trifluoromethylethyl)-urea], the EC50 lay in the range of 1000 to 5000 nM.

Consider `CC(NC(=O)Nc1cccc(C#N)c1)(C(F)(F)F)C(F)(F)F` [Example 76, 1-(3-Cyanophenyl)-3-(2,2,2-trifluoro-1-methyl-1-trifluoromethylethyl)-urea], for which the EC50 lay in the range of 1000 to 5000 nM.

As to `COc1cccc(NC(=O)NC(C)(C(F)(F)F)C(F)(F)F)c1` [Example 77, 1-(3-Methoxyphenyl)-3-(2,2,2-trifluoro-1-methyl-1-trifluoromethylethyl)-urea], the concentration giving a half-maximal response (EC50) fell in the range of 1000 to 5000 nM.

As to `CC(NC(=O)Nc1ccccc1OC(F)(F)C(F)F)(C(F)(F)F)C(F)(F)F` [Example 78, 1-(2-(1,1,2,2-Tetrafluoroethoxy)phenyl)-3-(2,2,2-trifluoro-1-methyl-1-trifluoromethylethyl)-urea], the EC50 lay within 1000 to 5000 nM.

As for `CC(NC(=O)Nc1cccc(S(N)(=O)=O)c1)(C(F)(F)F)C(F)(F)F` [Example 79, 3-[3-(1,1-Bis-trifluoromethylethyl)-ureido]benzenesulfonamide], the EC50 lay within 1000 to 5000 nM.

Turning to `CC(NC(=O)Nc1cccc(F)c1)(C(F)(F)F)C(F)(F)F` [Example 80, 1-(3-fluorophenyl)-3-(2,2,2-trifluoro-1-methyl-1-trifluoromethylethyl)-urea], the EC50 was 1000 to 5000 nM.

With `CC(NC(=O)Nc1ccc(Br)cc1)(C(F)(F)F)C(F)(F)F` [Example 81, 1-(4-Bromophenyl)-3-(2,2,2-trifluoro-1-methyl-1-trifluoromethylethyl)-urea], the EC50 lay within 1000 to 5000 nM.

For `CC(NC(=O)Nc1ccccc1C#N)(C(F)(F)F)C(F)(F)F` [Example 82, 1-(2-Cyanophenyl)-3-(2,2,2-trifluoro-1-methyl-1-trifluoromethylethyl)-urea], the EC50 is 1000 to 5000 nM.

Regarding `CC(NC(=O)Nc1ccc(C#N)cc1)(C(F)(F)F)C(F)(F)F` [Example 83, 1-(4-Cyanophenyl)-3-(2,2,2-trifluoro-1-methyl-1-trifluoromethylethyl)-urea], the EC50 lay in the range of 1000 to 5000 nM.

Turning to `CC(NC(=O)Nc1cccc2c1OC(F)(F)O2)(C(F)(F)F)C(F)(F)F` [Example 84, 1-(2,2-Difluorobenzo[1,3]dioxol-4-yl)-3-(2,2,2-trifluoro-1-methyl-1-trifluoromethylethyl)-urea], the EC50 is 1000 to 5000 nM.
